Data as given in patent US20240115571A1, “COMBINATION THERAPY FOR TREATING ABNORMAL CELL GROWTH” (priority 2021, published 2024).

Test system: EGFR mutant H1975 osimertinib-resistant (Dell9/T790M/C797S) NSCLC model
Test: H1975 osimertinib-resistant xenograft tumor mouse study
Format: in vivo, Balb/c nude mice
Conditions: VS-6766 0.3 mg/kg PO QD; osimertinib 2.5 mg/kg QD
Method: EGFR mutant H1975 NSCLC tumor cells were obtained from ATCC, EGFR mutant H1975 osimertinib-resistant NSCLC tumor cells were generated by Wuxi AppTec, and Balb/c nude mice were obtained from Beijing Vital River Laboratory Animal Technology. Tumor challenge was initiated by subcutaneous inoculation of 5×10^6 tumor cell suspensions into the right flank of recipient mice.
Tumor sizes (mm^3) and body weights were measured 2 times per week for the duration of the study. At the time of routine monitoring, the animals were checked for any effects of tumor growth and treatments on normal behavior such as mobility, food and water consumption (by looking only), and body weight gain/loss, eye/hair matting and any other abnormal effect.

Question: For `CNS(=O)(=O)Nc1nccc(Cc2c(C)c3ccc(Oc4ncccn4)cc3oc2=O)c1F` [VS-6766], which “survival compared to osimertinib single agent” value is on record?
Answer: increased

Question: And the “tumor growth inhibition compared to osimertinib single agent” value?
Answer: increased tumor growth inhibition
